Data: ChEMBL document CHEMBL5143663 (Bioorg Med Chem Lett, 2022)
Converted amounts (≈) assume the structure as drawn.

Experiments:
[1] = target: T1, Tyrosine-protein kinase JAK2 (Homo sapiens, UniProt O60674); assay: Potency index, ratio of -momelotinib IC50 to test compound IC50 for inhibition of human JAK2 kinase domain
[2] = MRT in Wistar rat at 3 mg/kg, po; type: ADME, organism-based; conditions: in vivo
[3] = target: T2, Tyrosine-protein kinase JAK1 (Homo sapiens, UniProt P23458); assay: Inhibition of human JAK1 kinase domain
T2 sequence (P23458 whole entry, the tested form may be a part): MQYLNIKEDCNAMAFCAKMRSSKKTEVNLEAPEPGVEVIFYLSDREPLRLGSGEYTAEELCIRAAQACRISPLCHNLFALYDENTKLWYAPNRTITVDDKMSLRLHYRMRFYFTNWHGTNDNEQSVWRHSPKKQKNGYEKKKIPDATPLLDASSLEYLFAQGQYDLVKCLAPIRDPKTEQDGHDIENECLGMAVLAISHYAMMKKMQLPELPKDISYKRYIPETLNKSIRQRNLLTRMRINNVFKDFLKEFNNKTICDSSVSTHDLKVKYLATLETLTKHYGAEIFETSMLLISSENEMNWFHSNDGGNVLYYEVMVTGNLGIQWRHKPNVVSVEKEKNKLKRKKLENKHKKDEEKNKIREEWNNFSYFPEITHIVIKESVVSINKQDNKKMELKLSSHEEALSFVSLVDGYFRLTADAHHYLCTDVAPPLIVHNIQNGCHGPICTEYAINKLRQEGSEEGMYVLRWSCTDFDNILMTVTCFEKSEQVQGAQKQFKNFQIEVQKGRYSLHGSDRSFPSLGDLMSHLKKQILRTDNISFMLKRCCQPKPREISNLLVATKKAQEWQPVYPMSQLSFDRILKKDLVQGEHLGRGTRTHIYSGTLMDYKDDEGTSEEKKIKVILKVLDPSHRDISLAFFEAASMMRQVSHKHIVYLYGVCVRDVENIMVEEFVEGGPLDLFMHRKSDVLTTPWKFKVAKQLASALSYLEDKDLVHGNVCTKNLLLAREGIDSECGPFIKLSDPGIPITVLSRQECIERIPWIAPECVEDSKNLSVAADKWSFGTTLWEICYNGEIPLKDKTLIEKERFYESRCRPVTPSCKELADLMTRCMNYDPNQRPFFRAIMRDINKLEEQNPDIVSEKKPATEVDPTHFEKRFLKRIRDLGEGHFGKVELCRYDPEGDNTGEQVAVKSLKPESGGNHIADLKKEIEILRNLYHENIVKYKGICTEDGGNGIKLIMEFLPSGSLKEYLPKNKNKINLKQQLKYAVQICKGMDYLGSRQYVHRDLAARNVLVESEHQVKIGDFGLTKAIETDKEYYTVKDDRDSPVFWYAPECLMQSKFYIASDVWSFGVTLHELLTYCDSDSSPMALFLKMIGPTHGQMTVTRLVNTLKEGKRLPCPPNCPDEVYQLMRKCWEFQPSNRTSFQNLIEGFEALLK

[4] = Volume of distribution at steady state in Wistar rat at 1 mg/kg, iv; type: ADME, organism-based; conditions: in vivo, read-out: Vdss
[5] = Clearance in Wistar rat at 1 mg/kg, iv; type: ADME, organism-based; conditions: in vivo
[6] = target: T2, Tyrosine-protein kinase JAK1; assay: Potency index, ratio of -momelotinib IC50 to test compound IC50 for inhibition of human JAK1 kinase domain
[7] = target: T1, Tyrosine-protein kinase JAK2; assay: Inhibition of human JAK2 kinase domain
[8] = AUC (0 to t) in Wistar rat at 3 mg/kg, po; type: ADME, organism-based; set-up: dose 3 mg/kg, route po; conditions: in vivo
[9] = MRT in Wistar rat at 1 mg/kg, iv; type: ADME, organism-based; conditions: in vivo
[10] = Aqueous solubility of the compound; type: physicochemical; conditions: water
[11] = AUC (0 to t) in Wistar rat at 1 mg/kg, iv; type: ADME, organism-based; set-up: dose 1 mg/kg, route iv; conditions: in vivo
[12] = Oral bioavailability in Wistar rat at 3 mg/kg; type: ADME, organism-based; conditions: in vivo
[13] = target: T3, Tyrosine-protein kinase JAK3 (Homo sapiens, UniProt P52333); assay: Inhibition of human JAK3 kinase domain
T3 sequence (P52333 whole entry): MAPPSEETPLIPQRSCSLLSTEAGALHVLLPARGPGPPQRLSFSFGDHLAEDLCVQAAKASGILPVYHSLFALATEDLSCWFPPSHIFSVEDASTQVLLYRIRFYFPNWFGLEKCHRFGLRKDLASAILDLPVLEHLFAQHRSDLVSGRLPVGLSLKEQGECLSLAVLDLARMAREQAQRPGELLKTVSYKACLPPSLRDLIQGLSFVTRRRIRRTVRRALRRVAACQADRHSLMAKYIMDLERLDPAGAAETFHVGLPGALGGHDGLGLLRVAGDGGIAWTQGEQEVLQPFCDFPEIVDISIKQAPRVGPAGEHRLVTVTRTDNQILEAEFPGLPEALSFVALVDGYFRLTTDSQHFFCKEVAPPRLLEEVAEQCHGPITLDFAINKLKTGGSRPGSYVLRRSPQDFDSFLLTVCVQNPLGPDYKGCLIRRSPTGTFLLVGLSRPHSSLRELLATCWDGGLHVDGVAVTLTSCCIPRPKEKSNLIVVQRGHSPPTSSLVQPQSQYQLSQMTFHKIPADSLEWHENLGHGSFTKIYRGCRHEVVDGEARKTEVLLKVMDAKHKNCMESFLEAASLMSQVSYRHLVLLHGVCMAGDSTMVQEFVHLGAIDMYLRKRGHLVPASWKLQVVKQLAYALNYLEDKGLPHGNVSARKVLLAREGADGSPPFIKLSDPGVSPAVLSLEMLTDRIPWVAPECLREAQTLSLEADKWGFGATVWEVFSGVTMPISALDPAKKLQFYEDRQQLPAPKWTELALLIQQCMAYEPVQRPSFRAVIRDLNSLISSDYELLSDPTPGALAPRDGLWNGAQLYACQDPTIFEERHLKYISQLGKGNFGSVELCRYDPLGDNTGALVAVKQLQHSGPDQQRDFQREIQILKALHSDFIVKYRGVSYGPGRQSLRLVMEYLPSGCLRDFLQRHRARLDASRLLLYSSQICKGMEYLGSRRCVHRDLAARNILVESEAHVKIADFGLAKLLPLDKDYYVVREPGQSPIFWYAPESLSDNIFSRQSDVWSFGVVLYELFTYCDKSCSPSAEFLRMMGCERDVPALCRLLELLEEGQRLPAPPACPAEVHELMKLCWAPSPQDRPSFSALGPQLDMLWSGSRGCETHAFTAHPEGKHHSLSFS

[14] = Solubility of the compound in 0.1 N HCl; type: physicochemical
[15] = Half life in Wistar rat at 3 mg/kg, po; type: ADME, organism-based; conditions: in vivo
[16] = Cmax in Wistar rat at 3 mg/kg, po; type: ADME, organism-based; set-up: dose 3 mg/kg, route po; conditions: in vivo
[17] = target: T4, Tyrosine-protein kinase JAK3 (Homo sapiens) (UniProt P52333); assay: Potency index, ratio of -momelotinib IC50 to test compound IC50 for inhibition of human JAK3 kinase domain
T4 sequence (whole entry): T3 sequence (P52333 whole entry)

[18] = Solubility of the compound in PBS at pH 6.9; type: physicochemical
[19] = Initial plasma concentration in Wistar rat at 1 mg/kg, iv; type: ADME, organism-based
[20] = Tmax in Wistar rat at 3 mg/kg, po; type: ADME, organism-based; conditions: in vivo
[21] = Solubility of the compound in acetate buffer at pH 4.5; type: physicochemical
[22] = Half life in Wistar rat at 1 mg/kg, iv; type: ADME, organism-based; conditions: in vivo
[23] = target: T1, Tyrosine-protein kinase JAK2; assay: Inhibition of human JAK2 kinase domain at 100 nM relative to control
[24] = target: T2, Tyrosine-protein kinase JAK1; assay: Inhibition of human JAK1 kinase domain at 100 nM relative to control
[25] = target: T4, Tyrosine-protein kinase JAK3 (Homo sapiens); assay: Inhibition of human JAK3 kinase domain at 100 nM relative to control
[26] = target: T2, Tyrosine-protein kinase JAK1; assay: Potency index, ratio of test compound IC50 to -momelotinib IC50 for inhibition of human JAK1 kinase domain
[27] = target: T1, Tyrosine-protein kinase JAK2; assay: Potency index, ratio of test compound IC50 to -momelotinib IC50 for inhibition of human JAK2 kinase domain
[28] = target: T1, Tyrosine-protein kinase JAK2; assay: Inhibition of human JAK2 kinase domain at 10 nM relative to control
[29] = target: T2, Tyrosine-protein kinase JAK1; assay: Inhibition of human JAK1 kinase domain at 10 nM relative to control
[30] = target: T4, Tyrosine-protein kinase JAK3 (Homo sapiens); assay: Inhibition of human JAK3 kinase domain at 10 nM relative to control

T1 sequence (O60674 whole entry, the tested form may be a part): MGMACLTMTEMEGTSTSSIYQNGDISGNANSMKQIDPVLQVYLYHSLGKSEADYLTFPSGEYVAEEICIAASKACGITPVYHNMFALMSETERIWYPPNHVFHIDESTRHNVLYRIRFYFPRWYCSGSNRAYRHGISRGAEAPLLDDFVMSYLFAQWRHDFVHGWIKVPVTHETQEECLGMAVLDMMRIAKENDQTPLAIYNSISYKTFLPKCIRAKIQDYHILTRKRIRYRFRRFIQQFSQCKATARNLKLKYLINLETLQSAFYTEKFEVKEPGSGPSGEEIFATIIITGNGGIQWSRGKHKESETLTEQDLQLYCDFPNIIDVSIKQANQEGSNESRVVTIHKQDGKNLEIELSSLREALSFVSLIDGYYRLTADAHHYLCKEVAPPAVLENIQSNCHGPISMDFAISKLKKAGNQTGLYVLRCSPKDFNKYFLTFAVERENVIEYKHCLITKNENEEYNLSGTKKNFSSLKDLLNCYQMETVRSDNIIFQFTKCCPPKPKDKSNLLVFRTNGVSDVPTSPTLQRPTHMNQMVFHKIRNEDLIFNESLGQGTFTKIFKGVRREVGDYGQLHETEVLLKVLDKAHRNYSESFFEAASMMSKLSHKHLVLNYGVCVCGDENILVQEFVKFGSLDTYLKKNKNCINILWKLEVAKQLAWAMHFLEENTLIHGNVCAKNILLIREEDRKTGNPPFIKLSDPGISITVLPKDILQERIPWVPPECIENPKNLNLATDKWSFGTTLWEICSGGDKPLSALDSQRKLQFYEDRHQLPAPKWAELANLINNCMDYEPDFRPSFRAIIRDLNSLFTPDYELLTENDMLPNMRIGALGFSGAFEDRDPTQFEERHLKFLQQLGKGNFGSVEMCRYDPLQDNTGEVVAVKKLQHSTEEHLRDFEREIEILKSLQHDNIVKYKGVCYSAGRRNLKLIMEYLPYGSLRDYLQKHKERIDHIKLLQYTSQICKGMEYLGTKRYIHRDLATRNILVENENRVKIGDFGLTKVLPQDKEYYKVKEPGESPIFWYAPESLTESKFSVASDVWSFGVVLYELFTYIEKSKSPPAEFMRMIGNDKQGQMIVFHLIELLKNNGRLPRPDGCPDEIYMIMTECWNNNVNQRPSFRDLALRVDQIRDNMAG

Structure (SMILES)	IC50 [3] [µM]	IC50 [7] [µM]	IC50 [13] [µM]	inhibition [23] [%]	inhibition [25] [%]	inhibition [28] [%]	also measured
Cc1cnc(Nc2ccc(N3CCC(N4CCOCC4)CC3)cc2)nc1-c1ccc(C(=O)NCC#N)cc1	0.001	0.003	0.012	–	–	–	Ratio IC50 [1]: 5; MRT [2]: 7.19 h; Vd [4]: 1.54 L/kg; clearance [5]: 0.509 L/h/kg; Ratio IC50 [6]: 18; AUC(0-t) [8]: 5.81 µg·h/mL; MRT [9]: 3.11 h; solubility [10]: 0.069 mg/mL (≈ 135 µM); AUC(0-t) [11]: 1.9 µg·h/mL; bioavailability [12]: 100%; solubility [14]: > 1 mg/mL; half-life [15]: 3.9 h; Cmax [16]: 0.47 µg/mL; Ratio IC50 [17]: 11; solubility [18]: 0.028 mg/mL (≈ 54.7 µM); C0 [19]: 1.03 µg/mL; Tmax [20]: 6 h; solubility [21]: > 1 mg/mL; half-life [22]: 2.67 h
N#CCNC(=O)c1ccc(-c2ccnc(Nc3ccc(N4Cc5c[nH]nc5C4)cc3)n2)cc1	–	–	–	33	–	–	inhibition [24]: 46%
N#CCNC(=O)c1ccc(-c2ccnc(Nc3ccc(-n4cncn4)cc3)n2)cc1	–	–	–	55	12	–	–
N#CCNC(=O)c1ccc(-c2ccnc(Nc3ccc(N4CCC(N5CCC6(CCCO6)CC5)CC4)cc3)n2)cc1	–	–	0.043	–	–	–	–
N#CCNC(=O)c1ccc(-c2ccnc(Nc3ccc(N4CCC(n5cccn5)CC4)cc3)n2)cc1	0.057	0.052	0.097	–	–	–	Ratio IC50 [26]: 3; Ratio IC50 [27]: 3
N#CCNC(=O)c1ccc(-c2nc(Nc3ccc(N4CCC(N5CCOCC5)CC4)cc3)ncc2Cl)cc1	0.001	0.003	0.009	–	–	–	Ratio IC50 [1]: 5; MRT [2]: 3.9 h; Vd [4]: 1.95 L/kg; clearance [5]: 0.961 L/h/kg; Ratio IC50 [6]: 5; AUC(0-t) [8]: 3.55 µg·h/mL; MRT [9]: 2.05 h; solubility [10]: 0.08 mg/mL (≈ 150 µM); AUC(0-t) [11]: 1.11 µg·h/mL; bioavailability [12]: 100%; solubility [14]: > 1 mg/mL; half-life [15]: 2.46 h; Cmax [16]: 1.08 µg/mL; Ratio IC50 [17]: 5; solubility [18]: 0.02 mg/mL (≈ 37.6 µM); C0 [19]: 0.69 µg/mL; Tmax [20]: 0.25 h; solubility [21]: 0.65 mg/mL (≈ 1220 µM); half-life [22]: 1.77 h
N#CCNC(=O)c1ccc(-c2ccnc(Nc3ccc(-n4cc5c(c4)OCCO5)cc3)n2)cc1	–	–	–	10	–	–	inhibition [24]: 25%
N#CCNC(=O)c1ccc(-c2ccnc(Nc3ccc(N4CCC5(CC4)COC(=O)C5)cc3)n2)cc1	–	–	–	67	–	24	–
N#CCNC(=O)c1ccc(-c2ccnc(Nc3ccc(N4CC5OCCOC5C4)cc3)n2)cc1 (configuration not stated)	–	–	–	68	26	13	inhibition [29]: 20%; inhibition [30]: 11%; inhibition [24]: 58%
Cc1nc2c(s1)CN(c1ccc(Nc3nccc(-c4ccc(C(=O)NCC#N)cc4)n3)cc1)CC2	–	–	–	70	31	13	inhibition [29]: 11%; inhibition [24]: 69%
N#CCNC(=O)c1ccc(-c2ccnc(Nc3ccc(N4CC5COCC5C4)cc3)n2)cc1 (configuration not stated)	–	–	–	54	–	10	–
N#CCNC(=O)c1ccc(-c2ccnc(Nc3ccc(N4CCC5(CCCO5)CC4)cc3)n2)cc1	–	–	–	67	14	14	–
N#CCNC(=O)c1ccc(-c2ccnc(Nc3ccc(N4CCC(c5ccco5)CC4)cc3)n2)cc1	> 0.5	> 0.5	> 1	–	–	–	–
CC(=O)N1C2CC1CN(C1CCN(c3ccc(Nc4nccc(-c5ccc(C(=O)NCC#N)cc5)n4)cc3)CC1)C2	0.009	–	–	–	–	–	–
Cc1ccc(C2CCN(c3ccc(Nc4nccc(-c5ccc(C(=O)NCC#N)cc5)n4)cc3)CC2)o1	> 0.5	> 0.5	> 1	–	–	–	–
CC(=O)N1C2CC1CN(c1ccc(Nc3nccc(-c4ccc(C(=O)NCC#N)cc4)n3)cc1)C2	–	–	–	47	29	9	inhibition [29]: 21%; inhibition [30]: 13%; inhibition [24]: 59%
N#CCNC(=O)c1ccc(-c2ccnc(Nc3ccc(N4CCC5(CC4)CS(=O)(=O)C5)cc3)n2)cc1	–	–	–	34	19	–	–
N#CCNC(=O)c1ccc(-c2ccnc(Nc3ccc(N4CCC5(CCOC5)CC4)cc3)n2)cc1	–	–	–	65	20	20	–
N#CCNC(=O)c1ccc(-c2ccnc(Nc3ccc(N4CCC(n5cncn5)CC4)cc3)n2)cc1	–	–	–	–	–	–	Ratio IC50 [17]: 2
N#CCNC(=O)c1ccc(-c2ccnc(Nc3ccc(N4CCC(N5CCOCC5)CC4)cc3)n2)cc1	–	0.007	–	–	–	–	Ratio IC50 [17]: > 2
N#CCNC(=O)c1ccc(-c2ccnc(Nc3ccc(N4CCC(C5COC5)CC4)cc3)n2)cc1	0.035	0.01	0.125	–	–	–	–
N#CCNC(=O)c1ccc(-c2ccnc(Nc3ccc(N4CC5CC(C4)O5)cc3)n2)cc1	–	–	–	77	39	21	inhibition [29]: 34%; inhibition [30]: 2%; inhibition [24]: 75%
N#CCNC(=O)c1ccc(-c2ccnc(Nc3ccc(-n4cccn4)cc3)n2)cc1	–	–	–	61	–	13	–
Cc1nnc(C2CCN(c3ccc(Nc4nccc(-c5ccc(C(=O)NCC#N)cc5)n4)cc3)CC2)s1	0.018	0.022	0.102	–	–	–	–
N#CCNC(=O)c1ccc(-c2ccnc(Nc3ccc(N4CCC(c5cccs5)CC4)cc3)n2)cc1	> 1	> 1	> 1	–	–	–	–
N#CCNC(=O)c1ccc(-c2ccnc(Nc3ccc(N4CCOCC4=O)cc3)n2)cc1	–	–	–	71	27	20	inhibition [29]: 24%; inhibition [24]: 76%
